Data published in patent US6586604B2, “Tricyclic amine derivatives” (Daiichi Pharmaceutical Co., Ltd., priority 1996, dated 2003).
Converted amounts (≈) assume the structure as drawn.

Legend:
S. aureaus, 209P = experiment: Antimicrobial activity (MIC), standard method of the Japan Chemotherapeutic Society; assay type: cell-based; conditions: for MIC: read-out: minimum inhibitory concentration (MIC)
Description: (§1) The antimicrobial activity of the compounds according to the present invention was determined in accordance with the standard method specified by the Japan Chemotherapeutic Society.

Ser. Marcescens, 10100 = experiment: as above; assay type: cell-based; conditions: for MIC: Serratia marcescens, read-out: minimum inhibitory concentration (MIC)
Description: as §1

Pr. vulgaris, 08601 = experiment: as above; assay type: cell-based; conditions: for MIC: Proteus vulgaris, read-out: minimum inhibitory concentration (MIC)
Description: as §1

Ps. Aeruginosa, 32121 = experiment: as above; assay type: cell-based; conditions: for MIC: Pseudomonas aeruginosa, read-out: minimum inhibitory concentration (MIC)
Description: as §1

S. pneumoniae, J24 = experiment: as above; assay type: cell-based; conditions: for MIC: Streptococcus pneumoniae, read-out: minimum inhibitory concentration (MIC)
Description: as §1

S. flexneli, 2A 5503 = experiment: as above; assay type: cell-based; conditions: for MIC: read-out: minimum inhibitory concentration (MIC); for minimum inhibitory concentration (MIC): S. flexneli, 2A 5503
Description: as §1

Str. Pyogenes, G-36 = experiment: as above; assay type: cell-based; conditions: for MIC: Streptococcus pyogenes, read-out: minimum inhibitory concentration (MIC)
Description: as §1

Pr. Mirabilis, IFO-3849 = experiment: as above; assay type: cell-based; conditions: for MIC: Proteus mirabilis, IFO3849, read-out: minimum inhibitory concentration (MIC)
Description: as §1

Ps. Aeruginosa, 32104 = experiment: as above; assay type: cell-based; conditions: for MIC: Pseudomonas aeruginosa, read-out: minimum inhibitory concentration (MIC)
Description: as §1

[1] = tested on: Ps. Maltophilia, 11D-1275; experiment: as above; assay type: cell-based; conditions: for MIC: Stenotrophomonas maltophilia, read-out: minimum inhibitory concentration (MIC)
Description: as §1

S. aureus, 870307 = experiment: as above; assay type: cell-based; conditions: for MIC: Staphylococcus aureus, read-out: minimum inhibitory concentration (MIC)
Description: as §1

E. coil, NIHJ = experiment: as above; assay type: cell-based; conditions: for MIC: read-out: minimum inhibitory concentration (MIC)
Description: as §1

[2] = tested on: Str. Faecalis, ATCC-19433; experiment: as above; assay type: cell-based; conditions: for MIC: Enterococcus faecalis, ATCC19433, read-out: minimum inhibitory concentration (MIC)
Description: as §1

S. epidermidis, 56500 = experiment: as above; assay type: cell-based; conditions: for MIC: Staphylococcus epidermidis, read-out: minimum inhibitory concentration (MIC)
Description: as §1

Nc1c(F)c(N2CC3CC4CC4(N)C3C2)c(F)c2c1c(=O)c(C(=O)O)cn2C1CC1 (stereo not drawn) [Example 1, 5-Amino-7-(1-amino-4-azatricyclo[6.1.0.0^2,6]-nonan-4-yl)-1-cyclopropyl-6,8-difluoro-1,4-dihydro-4-oxoquinoline-3-carboxylic Acid]
MIC (S. aureaus, 209P): ≤ 0.003 µg/mL
MIC (Ser. Marcescens, 10100): 0.1 µg/mL (≈ 0.24 µM)
MIC (Pr. vulgaris, 08601): 0.1 µg/mL (≈ 0.24 µM)
MIC (Ps. Aeruginosa, 32121): 0.2 µg/mL (≈ 0.48 µM)
MIC (S. pneumoniae, J24): ≤ 0.003 µg/mL
MIC (S. flexneli, 2A 5503): ≤ 0.003 µg/mL
MIC (Str. Pyogenes, G-36): 0.006 µg/mL (≈ 0.0144 µM)
MIC (Pr. Mirabilis, IFO-3849): 0.05 µg/mL (≈ 0.12 µM)
MIC (Ps. Aeruginosa, 32104): 0.2 µg/mL (≈ 0.48 µM)
MIC [1]: 0.05 µg/mL (≈ 0.12 µM)
MIC (S. aureus, 870307): 0.1 µg/mL (≈ 0.24 µM)
MIC (E. coil, NIHJ): ≤ 0.003 µg/mL
MIC [2]: 0.025 µg/mL (≈ 0.06 µM)
MIC (S. epidermidis, 56500): 0.006 µg/mL (≈ 0.0144 µM)
melting point: 197 to 202 °C (dec.)

C[C@H]1COc2c(N3C[C@H]4CC5C[C@]5(N)[C@H]4C3)c(F)cc3c(=O)c(C(=O)O)cn1c23 (stereo partly drawn) [Example 2, 10-{(1R,2R,6S)-1-Amino-4-azatricyclo[6.1.0.0^2,6]nonan-4-yl}-9-fluoro-2,3-dihydro-3-(S)-methyl-7-oxo-7H-pyrido[1.2.3-de][1,4]benzoxazine-6-carboxylic Acid]
minimum inhibitory concentration (MIC) (S. aureaus, 209P): 0.006 µg/mL (≈ 0.015 µM)
minimum inhibitory concentration (MIC) (Ser. Marcescens, 10100): 0.05 µg/mL (≈ 0.125 µM)
minimum inhibitory concentration (MIC) (Pr. vulgaris, 08601): 0.025 µg/mL (≈ 0.0626 µM)
minimum inhibitory concentration (MIC) (Ps. Aeruginosa, 32121): 0.05 µg/mL (≈ 0.125 µM)
minimum inhibitory concentration (MIC) (S. pneumoniae, J24): 0.013 µg/mL (≈ 0.0325 µM)
minimum inhibitory concentration (MIC) (S. flexneli, 2A 5503): 0.006 µg/mL (≈ 0.015 µM)
minimum inhibitory concentration (MIC) (Str. Pyogenes, G-36): 0.013 µg/mL (≈ 0.0325 µM)
minimum inhibitory concentration (MIC) (Pr. Mirabilis, IFO-3849): 0.10 µg/mL (≈ 0.25 µM)
minimum inhibitory concentration (MIC) (Ps. Aeruginosa, 32104): 0.20 µg/mL (≈ 0.501 µM)
minimum inhibitory concentration (MIC) [1]: 0.20 µg/mL (≈ 0.501 µM)
minimum inhibitory concentration (MIC) (S. aureus, 870307): 0.20 µg/mL (≈ 0.501 µM)
minimum inhibitory concentration (MIC) (E. coil, NIHJ): ≦0.003 μg/ml
minimum inhibitory concentration (MIC) [2]: 0.05 µg/mL (≈ 0.125 µM)
minimum inhibitory concentration (MIC) (S. epidermidis, 56500): 0.025 µg/mL (≈ 0.0626 µM)

COc1c(N2CC3CC4CC4(N)C3C2)c(F)cc2c(=O)c(C(=O)O)cn([C@@H]3C[C@@H]3F)c12 (stereo partly drawn) [Example 5, 7-{1-Amino-4-azatricyclo[6.1.0.0^2,6]nonan-4-yl}-6-fluoro-1-[2-(S)-fluoro-1-(R)-cyclopropyl]-1,4-dihydro-8-methoxy-4-oxoquinoline-3-carboxylic Acid]
MIC (S. aureaus, 209P): ≤ 0.003 µg/mL
MIC (Ser. Marcescens, 10100): 0.05 µg/mL (≈ 0.116 µM)
MIC (Pr. vulgaris, 08601): 0.006 µg/mL (≈ 0.0139 µM)
MIC (Ps. Aeruginosa, 32121): 0.05 µg/mL (≈ 0.116 µM)
MIC (S. pneumoniae, J24): ≤ 0.003 µg/mL
MIC (S. flexneli, 2A 5503): ≤ 0.003 µg/mL
MIC (Str. Pyogenes, G-36): ≤ 0.003 µg/mL
MIC (Pr. Mirabilis, IFO-3849): ≤ 0.003 µg/mL
MIC (Ps. Aeruginosa, 32104): 0.1 µg/mL (≈ 0.232 µM)
MIC [1]: 0.05 µg/mL (≈ 0.116 µM)
MIC (S. aureus, 870307): 0.013 µg/mL (≈ 0.0301 µM)
MIC (E. coil, NIHJ): ≤ 0.003 µg/mL
MIC [2]: 0.025 µg/mL (≈ 0.0579 µM)
MIC (S. epidermidis, 56500): ≤ 0.003 µg/mL
melting point: 146 to 159 °C (dec.)

Cc1c(N2CC3CC4CC4(N)C3C2)c(F)c(N)c2c(=O)c(C(=O)O)cn([C@@H]3C[C@@H]3F)c12 (stereo partly drawn) [Example 6, 5-Amino-7-{1-amino-4-azatricyclo[6.1.0.0^2,6]nonan-4-yl}-6-fluoro-1-[2-(S)-fluoro-1-(R)-cyclopropyl]-1,4-dihydro-8-methyl-4-oxoquinoline-4-carboxylic Acid]
minimum inhibitory concentration (MIC) (S. aureaus, 209P): ≦0.003 μg/ml
minimum inhibitory concentration (MIC) (Ser. Marcescens, 10100): 0.05 µg/mL (≈ 0.116 µM)
minimum inhibitory concentration (MIC) (Pr. vulgaris, 08601): 0.025 µg/mL (≈ 0.0581 µM)
minimum inhibitory concentration (MIC) (Ps. Aeruginosa, 32121): 0.025 µg/mL (≈ 0.0581 µM)
minimum inhibitory concentration (MIC) (S. pneumoniae, J24): ≦0.003 μg/ml
minimum inhibitory concentration (MIC) (S. flexneli, 2A 5503): ≦0.003 μg/ml
minimum inhibitory concentration (MIC) (Str. Pyogenes, G-36): ≦0.003 μg/ml
minimum inhibitory concentration (MIC) (Pr. Mirabilis, IFO-3849): 0.025 µg/mL (≈ 0.0581 µM)
minimum inhibitory concentration (MIC) (Ps. Aeruginosa, 32104): 0.10 µg/mL (≈ 0.232 µM)
minimum inhibitory concentration (MIC) [1]: 0.025 µg/mL (≈ 0.0581 µM)
minimum inhibitory concentration (MIC) (S. aureus, 870307): 0.05 µg/mL (≈ 0.116 µM)
minimum inhibitory concentration (MIC) (E. coil, NIHJ): ≦0.003 μg/ml
minimum inhibitory concentration (MIC) [2]: 0.013 µg/mL (≈ 0.0302 µM)
minimum inhibitory concentration (MIC) (S. epidermidis, 56500): ≦0.003 μg/ml

Cc1c(N2CC3CC4CC4(N)C3C2)c(F)cc2c(=O)c(C(=O)O)cn([C@@H]3C[C@@H]3F)c12 (stereo partly drawn) [Example 7, 7-(1-Amino-4-azabicyclo[6.1.0.0^2,6]nonan-4-yl)-6-fluoro-1-[2-(S)-fluoro-1-(R)-cyclopropyl]-8-methyl-1,4-dihydro-4-oxoquinoline-3-carboxylic Acid]
minimum inhibitory concentration (MIC) (S. aureaus, 209P): ≦0.003 μg/ml
minimum inhibitory concentration (MIC) (Ser. Marcescens, 10100): 0.025 µg/mL (≈ 0.0602 µM)
minimum inhibitory concentration (MIC) (Pr. vulgaris, 08601): ≦0.003 μg/ml
minimum inhibitory concentration (MIC) (Ps. Aeruginosa, 32121): 0.025 µg/mL (≈ 0.0602 µM)
minimum inhibitory concentration (MIC) (S. pneumoniae, J24): ≦0.003 μg/ml
minimum inhibitory concentration (MIC) (S. flexneli, 2A 5503): ≦0.003 μg/ml
minimum inhibitory concentration (MIC) (Str. Pyogenes, G-36): ≦0.003 μg/ml
minimum inhibitory concentration (MIC) (Pr. Mirabilis, IFO-3849): 0.013 µg/mL (≈ 0.0313 µM)
minimum inhibitory concentration (MIC) (Ps. Aeruginosa, 32104): 0.05 µg/mL (≈ 0.12 µM)
minimum inhibitory concentration (MIC) [1]: 0.025 µg/mL (≈ 0.0602 µM)
minimum inhibitory concentration (MIC) (S. aureus, 870307): 0.013 µg/mL (≈ 0.0313 µM)
minimum inhibitory concentration (MIC) (E. coil, NIHJ): ≦0.003 μg/ml
minimum inhibitory concentration (MIC) [2]: 0.013 µg/mL (≈ 0.0313 µM)
minimum inhibitory concentration (MIC) (S. epidermidis, 56500): ≦0.003 μg/ml
